What was measured:
[1] = tested on: SKMEL-28 melanoma and U373 glioblastoma cells; experiment: Morphological evaluation by phase contrast microscopy / videomicroscopy; assay type: cell-based, human
Method: For the morphological evaluation of the effects induced by compounds 1 and 13, 6 × 10^4 cells were seeded on glass coverslips placed in 6 well plates a minimum 24 h before their treatment. At the end of the incubation period with the treatment, coverslips were rinsed once in PBS buffer and directly mounted on slides to allow visualization of the cell with an Axio.Imager.M2 microscope (G X40 and G X100).

SKMEL-28 = experiment: MTT colorimetric assay, SKMEL-28; assay type: cell-based; details: Homo sapiens, SK-MEL-28; 72 h treatment; mean ± SEM; resistant to apoptosis; read-out: IC50 determined by MTT assays, SKMEL-28
From the text: (§1) Cancer cell lines were obtained from either the European Collection of Cell Cultures (ECACC; Salisbury, UK) or the American Type Culture Collection (ATCC; Manassas, VA). The two glioma cell lines were the U373 (ECACC code 08061901) and Hs683 (ATCC HTB-138) cell lines. The carcinoma cell lines were the A549 non-small cell carcinoma cell line (ATCC code CCL 185) and the MCF-7 mammary breast carcinoma cell line (ATCC code HTB-22). The melanoma cell lines were the mouse B16F10 cells (ATCC code CRL-6475) and the human SKMEL-28 cells (ATCC code HTB-72). The ovarian cancer cell line A2780 and its cisplatin-resistant subline A2780cis were obtained from Sigma-Aldrich (St. Louis, MO, USA). Colon cancer HCT116 cells were obtained from ATCC (CCL-247) and the oxaliplatin-resistant subline HCT116/OxR established in the W. Berger lab[59]. The HeLa cell derivative KB-3-1 and the colchicine-selected, highly ABCB1-overexpressing subline KB-C-1 were generously donated by Dr. D. W. Shen, Bethesda, MD. RKOp53wt colon cancer cells together with the RKOp53KO (homozygous knock-out) subline[60] were generously provided by Dr. Vogelstein from John Hopkins University, Baltimore. The correct origin of all cell models was confirmed by STR during performance of the experiments. All cell lines were cultured in RPMI1640 culture medium supplemented with 10% heat-inactivated fetal bovine serum, 2% L-glutamine (0.6 mg/mL), 2% penicillin/streptomycin (200 IU/mL and 200 μg/mL) and 0.1 mg/mL gentamicin.
(§2) The MTT (3-(4,5-dimethylthiazol-2-yl)-2,5-diphenyl tetrazolium bromide) colorimetric assay has been conducted as described previously. Briefly, cells were seeded 24 h before their treatment with each compound for a period of 72 h. The concentrations tested ranged from 10 nM to 100 µM. Each assay was conducted in sextuplicates. The number of independent experiments is mentioned in the legend of the tables.

[2] = target: caspase-like activity of the proteasome (Homo sapiens, UniProt P28072); experiment: Cellular proteasomal caspase-like activity; assay type: cell-based
Method: The chemotrypsin-like, trypsin-like and caspase-like activities of the proteasome were evaluated in cells with the G8660, G8861 and G8761 kits respectively according to the manufacturer’s instructions (Promega, USA). Briefly, the assays are based on the use of short amino-acid sequences coupled with luciferin and that can be specifically cleaved by each catalytic unit of the proteasomal complex. For this purpose, cells were seeded in 96 well plates 24 h before their treatment with 1 (5 µM), 13 (1 µM) for 6 h or with the positive control MG132 (1 µM) for 24 h. At the end of the treatments, cells were washed three times with PBS and permeabilized with digitonin (0.5 mg/mL; 50 µL per well) under shaking for 10 min. Then, 50 µL of a mixture of the substrate of interest and luciferase were added for 15 min under slow shaking. Luminescence levels quantified with the Active-Glo LR-100 luminometer (DSLabs, Suisse) were normalized according the number of viable cells evaluated in parallel in the same conditions by means of MTT assay.

MCF7 = experiment: MTT colorimetric assay, MCF7; assay type: cell-based; details: Homo sapiens, 72 h treatment, mean ± SEM, sensitive to apoptosis, read-out: IC50 determined by MTT assays, MCF7
From the text: as §1, §2

[3] = tested on: SK-MEL-28 human melanoma and U373 glioblastoma cells; experiment: ER swelling / vacuole origin (CellLight ER-GFP, brightfield, TEM); assay type: cell-based; details: SK-MEL-28 and U373 cells
From the text: To decipher the origin of vacuoles, fluorescent probes staining different cellular compartments were used: the lysosomal Red DND-99 LysoTracker®, the glibenclamide Red ER tracker®, the green FM MitoTracker® that were all purchased from Lifes Technologies (Invitrogen, Belgium) and used according to manufacturer’s instructions. The CellLight ER-GFP (Thermofisher, Belgium) staining of the ER is based on the transfection of a plasmid coding for a fusion protein made of GFP fused to the ER signal sequence of calreticulin and the KDEL ER retention signal. Briefly, 6 × 10^4 cells were seeded on glass coverslips in 6 well plates. After a minimum of 24 h, cells were treated or not with the compounds of interest. Note that concentration and duration of the treatment were determined separately for each compound prior to the experiment on the basis of the apparition of marked morphological changes in phase contrast microscopy. Sixteen hours before the end of the experiment, 4 µL/well of the reagent were added to allow transfection and expression of the GFP-fused protein by the cells. Coverslips were then washed twice in PBS and mounted on slides without fixation step to take captions with the Axio.Imager.M2 microscope (Carl Zeiss, Belgium). To evaluate the cellular distribution of 13, the Axio.Imager.M2 was specifically equipped with an M340L4 excitation source (Thorlabs) and the pseudoconfocal Zeiss ZEN deconvolution system kindly provided for demo by Carl Zeiss (Belgium) to allow direct visualization of the compound 13 itself thanks to its intrinsic fluorescent properties.
For TEM, cells were fixed with glutaraldehyde 2.5% (EM grade, Electron Microscopy Sciences, EMS) at 4 °C overnight, washed tree times in cacodylate buffer (pH 7.4) and postfixed 1 h at room temperature in 1% OsO4, (EMS), 1.5% potassium ferrocyanide (Sigma-Aldrich) in 0.15 M cacodylate buffer. This was immediately followed by a second incubation in 1% OsO4 for 1 h at room temperature. After washing in distilled water, samples were stained with 1% uranyl acetate (EMS) and serially dehydrated in increasing ethanol concentrations. Samples were then embedded in epoxy resin (Agar 100 resin, Agar Scientific Ltd) and left to polymerize for 2 days at 60 °C. Ultrathin sections (50–70 nm thick) were collected with a Leica UC6 ultra-microtome on formvar-carbon-coated copper grids and further stained with uranyl acetate and lead citrate by standard procedures. Observations were made on a Tecnai 10 transmission electron microscope (FEI) and images were captured with a Veleta camera and processed with SIS iTEM software (Olympus).

caspase-like activity of the proteasome, sequence (P28072 whole entry): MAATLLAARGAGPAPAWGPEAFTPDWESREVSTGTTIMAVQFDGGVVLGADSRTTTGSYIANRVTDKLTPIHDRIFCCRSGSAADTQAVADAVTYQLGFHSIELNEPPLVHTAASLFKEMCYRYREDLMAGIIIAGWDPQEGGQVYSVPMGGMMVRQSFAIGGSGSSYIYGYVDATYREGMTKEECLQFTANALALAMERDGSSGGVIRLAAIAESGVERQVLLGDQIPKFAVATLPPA

Row | Compound | time to cellular shrinkage ([1]; SKMEL-28 and U373) | IC50 (SKMEL-28) | effect on caspase-like proteasomal activity ([2]; 1 at 5 µM, 6 h) | IC50 (MCF7) | time to severe vacuolization ([1]; SKMEL-28 and U373 respectively) | inhibition at 1 µM ([2]; 13 at 1 µM, 6 h of treatment, both SKMEL-28 and U373) | ER swelling / ER-derived vacuolization [3]
1 | C=C[C@]1(C)C=C2C(=O)[C@@]3(O)OC(=O)[C@@]4(CCCC(C)(C)[C@H]34)[C@@]2(O)CC1 [Compound 1, sphaeropsidin A, reference compound] | ≤ 6 h | 2.32 ± 0.15 µM | stimulate caspase-like activity | 2.41 ± 0.35 µM |  |  | 
2 | CC1(C=CCCCc2ccc3ccc4cccc5ccc2c3c45)C=C2C(=O)C3(O)OC(=O)C4(CCCC(C)(C)C34)C2(O)CC1 (stereo not drawn) [Compound 13] |  | 0.31 ± 0.01 µM |  | 0.3 ± 0.02 µM | 15 to 24 h | > 60% | severe swelling of the ER
3 | CC1(C=CCCCc2ccc3ccc4cccc5ccc2c3c45)C=C2C(O)C3(O)OC(=O)C4(CCCC(C)(C)C34)C2(O)CC1 (stereo not drawn) [Compound 16] |  | 7.24 ± 0.07 µM |  | 5.98 ± 0.19 µM |  |  | severe ER-swelling
